These results are taken from patent US20050234015A1, “Low molecular weight heparin salt with triethanolamine useful as therapeutic-antitrombotic agent of local delivery, procedures for preparing them, process for elimination of hygroscopicity of heparin salt, pharmaceutical compositions for local use in antithrombotic therapy and uses therein” (priority 2004, published 2005).

The nature of data set [1]: anticoagulant strength of injectable heparin according to European Pharmacopoeia 2002 (EP strength). The data set is classed as biochemical. The protocol:
(§1) 7) Analytical Techniques Used • The anticoagulant strength of injectable heparin was determined according to European Pharmacopoeia 2002 (EP strength) and to USP 26 (USP strength) • Anti Xa and anti ha strengths were determined according to the literature of low molecular weight heparins (European Pharmacopoeia 2002) • Distribution of molecular weights and mean ponderal molecular weight were determined according to the literature of low molecular weight heparins (European Pharmacopoeia 2002), therefore, in the run buffer, TEA is replaced by Na^+ and the data obtained then pertain to polysaccharide sodium salt and not to TEA salt. • Triethanolamine is dosed by potentiometric titration.

The target of data set [2] is T1, IIa (Homo sapiens, UniProt P00734). Put plainly: anti IIa strength, European Pharmacopoeia 2002 Low Molecular Mass Heparin. It is filed as biochemical. The protocol: (§2) The anti Xa and anti IIa biological strengths were measured according to the European Pharmacopoeia EP2002; “Low Molecular Mass Heparin”, as well as the mean molecular weights (weighed average Mw) and the molecular weight distribution. Moreover, the standards and gages are those strictly cited in the mentioned literature. It is noted that in the run buffer for the chromatographic test by HPLC (Na2SO4, 0.2M pH 5.0) the TEA is replaced by N^a+ whereby the declared value is that of the sodium polysaccharide fraction and not the one of the LMWH-TEA salt.
as §1

The nature of data set [3]: hygroscopicity of the lyophilized product (observation). The data set is classed as physicochemical. To be noted: lyophilized solid. The text has this:
The salt obtained from the reaction of the triethanolamine (TEA) with the low molecular weight heparin (LMWH) is an amber colored substance, with a waxy appearance, extremely difficult to manipulate due to its high hygroscopicity. These characteristics of the LMWH-TEA salt make extremely difficult its precise dosage in the preparation of the pharmaceutical end products (creams, gels, ointments).

Data set [4] has as its system Xa. In words: anti Xa strength, European Pharmacopoeia 2002 Low Molecular Mass Heparin. It is filed as biochemical. The method, then: as §2, §1
In data set [5] the test system is experimental thrombosis in the tail of the test rat. In words: κ-carrageenan rat tail thrombosis model, local cream treatment. It is filed as in vivo, Wister rats (female). To be noted: 1000 u antiXa/gram, compared with local heparin and LMWH sodium salt creams. The text has this: With such criteria, Wister rats (female) raised in the laboratory and sanitarily controlled were used as test mammal.
Particularly, the thrombosis model developed consists of generating an experimental thrombosis in the tail of the test rat by intravenous injection (right caudal vein) of a thrombogenic substance such as κ-carrageenan. Without treatment, the tail of the animal totally forms thrombus without remission over time and ends up with necrosis after 3-4 days.
Particularly, this test was carried out according to the general outlines in Beckmeier et al, Agents and Actions, 16, 446 (1985), as follows:
a. Animals: female rats of 200-300 grams weight.
b. Thrombosing Solution: κ carrageenan Type II solution (Sigma C 1263) 1 mg/ml in sterile physiologic solution. 1 ml /kg of animal (right caudal vein of the tail) is injected (0.25 ml).
c. Thrombus induction: a tourniquet is placed near the tail base (15 cm from the end thereof) which was previously shaved. After 1 minute a thrombosing solution is injected and the animal tail is immediately immersed for 30 seconds in ice water, water is removed, it is dried and the tourniquet is kept for an additional 30 seconds. Then, the animal is kept for 2 minutes in a chamber at 10° C.
d. […]

In data set [6] the test system is Xa. Particulars: LMWH sodium salt by radical fragmentation methods, European Pat. 268885, U.S. Pat. No. 4,977,250; cited from earlier work.
Data set [7] deals with T1, IIa. Particulars: LMWH sodium salt by radical fragmentation methods, European Pat. 268885, U.S. Pat. No. 4,977,250; cited from earlier work.
The mark [8] stands for this setting: Example 3 comparison: LMWH-TEA of Example 2 vs lyophilizate with mannitol (60:40).
Setting [9] is: theoretical calculation: 100 g LMWH-Na = 167 g LMWH-TEA.

Read-outs that look alike come from different tables or passages of the source.

Take heparin [Injectable Heparin]: the entries for the “EP Strength” value in data set [1] (starting injectable heparin of Example 1) and in data set [1] (starting injectable heparin of Example 2) were 182 iu/mg and 180 iu/mg, respectively.

On to “low molecular weight heparin salt with triethanolamine [LMWH-TEA]”, for which the “anti IIa Strength” value at IIa [2] (setting [8]), on IIa [2] (product of Example 1) and at IIa [2] (product of Example 2) was 24 iu/mg each time. For the same substance, the “anti IIa, Experimental” value at IIa [2] (summary of experimental data) worked out at 24 iu/mg. In addition, the “anti IIa, Theoretical” value on IIa [2] (setting [9]) is on record as 24 iu/mg. For the same substance, the hygroscopicity entry in data set [3] is “highly hygroscopic”. The “anti Xa Strength” value in the data set on Xa [4] (setting [8]) is 50 iu/mg; in the data set on Xa [4] (product of Example 1 (HClO depolymerization, diafiltration with TEA)), 51 iu/mg; with Xa [4] (product of Example 2 (H2O2/FeSO4 depolymerization, ion exchange resin, TEA)) it was 50 iu/mg. For the same substance, the “anti Xa, Experimental” value in the data set on Xa [4] (summary of experimental data) is on record as 50-51 iu/mg. The “anti Xa, Theoretical” value in the data set on Xa [4] (setting [9]) was 54 iu/mg. The “efficacy against thrombosis, in words” value in data set [5] was “highly significant restitutive activity”.

Consider “low molecular weight heparin sodium salt [LMWH Na]”, for which the “anti Xa Strength” value in the data set on Xa [6] is around 90 iu/mg. Moreover, on IIa [7], the “anti IIa Strength” value is around 40 iu/mg.
